Experimental data: patent US10064858B2, “Methods and compositions for treating bacterial infections with iron chelators” (THE UNITED STATES OF AMERICA, AS REPRESENTED BY THE …, priority 2011, dated 2018)
“Also recorded” adds a separate entry of the source. Like-named read-outs stand apart in the source and are kept apart here.

Experiments:
[1] = tested on: AB5075, a stain of A. baumannii (Ab); assay: Development of rifampin resistance over 7 days (OD600); assay type: cell-based; details: ApoL1 in combination with rifampin; 7 days
Experimental: Development of antibiotic-resistant strains is an ongoing problem in the treatment of bacterial infections. In some embodiments, the present technology provides methods and compositions for reducing, inhibiting or preventing formation of antibiotic-resistant bacterial strains. In some embodiments, the iron chelator of the present technology is administered to a patient as a prophylactic before antibiotic treatment or during antibiotic treatment. In some embodiments, the iron chelator is added concurrently with an antibiotic.
Cultures of AB5075, a stain of A. baumannii (Ab), was cultured in the presence of Rifampin alone, the iron chelator ApoL1 alone or Rifampin combination with ApoL1 for 7 days.

[2] = tested on: S. aureus; assay: MIC in RPMI1640 media (Table 2); assay type: cell-based; details: Staphylococcus aureus
Experimental: Individual MICs were determined following the microdilution method recommended by CLSI in cationic-adjusted Mueller-Hinton Broth (CAMHB), or M9 media. […] Tests were performed in triplicate. MIC of iron chelators were determined for noscomial ESKAPE pathogens.
This media is closer to the iron levels in the human body. MICs are in ug/mL.

[3] = tested on: five clinical isolates of A. baumannii and AB19606; assay: Growth (OD600) of six A. baumannii strains with VK28 in low-iron M9 media; assay type: cell-based; details: 200 μM VK28 after 4 hr of growth, 24 hr
Experimental: Five clinical isolates of A. baumannii were obtained from Walter Reed Army Medical Center (WRAMC) and compared to the laboratory strain AB19606 from the ATCC. Strains were challenged with either 0 μM or 200 μM VK28 in low-iron M9 media after 4 hr of growth. Growth was estimated by absorbance at 600 nm every 4 hr for 24 hr. Dashed lines represent the same strains treated with 200 μM VK28.

[4] = tested on: A. baumannii; assay: Growth (OD600) with VK28 added at different times post-inoculation; assay type: cell-based; details: 200 μM VK28 added at 0, 4, 8, 12, 16, 20 hr post-inoculation; low-iron M9
Experimental: A. baumannii was grown in low-iron M9 media and challenged with 200 μM VK28 at 0 hr (▪), 4 hr (▴), 8 hr (▪), 12 hr (▪), 16 hr (•), and 20 hr (▪) post-inoculation. Growth was estimated by absorbance at 600 nm every 4 hr for 24 hr.

[5] = tested on: Extended Spectrum Beta-Lactamase (ESBL) Escherichia coli; assay: Growth (OD600) of MDR bacteria with VK28 in low-iron M9 media; assay type: cell-based; details: 200 μM VK28
Experimental: (§1) Isolates of Extended Spectrum Beta-Lactamase (ESBL) Escherichia coli, Klebsiella pneumoniae, Pseudomonas aeruginosa, and Methicillin-Resistant Staphylococcus aureus (MRSA) were challenged with either 0 μM, 100 μM or 200 μM VK28 in low-iron M9 media after 4 hr of growth. Growth was estimated by absorbance at 600 nm at 24 hr post inoculation.

[6] = tested on: Klebsiella pneumoniae; assay: as above; assay type: cell-based; details: 200 μM VK28
Experimental: as §1

[7] = tested on: Methicillin-Resistant Staphylococcus aureus (MRSA); assay: as above; assay type: cell-based; details: both 100 μM and 200 μM VK28
Experimental: as §1

[8] = tested on: Pseudomonas aeruginosa; assay: as above; assay type: cell-based; details: 200 μM VK28
Experimental: as §1

[9] = tested on: Escherichia coli; assay: Growth (OD600) with VK28 in M9 media with magnesium / calcium; assay type: cell-based; details: 24 hours
Experimental: Escherichia coli was grown similar to as described in Example 19 in M9 media containing 2 mM MgSO4 for 24 hours in the presence of 0 μg/ml, 50 μg/ml, 100 μg/ml, or 200 μg/ml VK28. The OD600 was measured at 0, 4, and 24 hour and the results are shown in the time-kill curves of FIG. 18.
(§2) In this example, strains of MR Staphylococcus aureus (MRSA), Acinetobacter baumannii (Acinetobacter), Escherichia coli (E. coli), and Pseudomonas aeruginosa (Pseudomonas) were grown in M9 media in the presence of 2 mM MgSO4 and 1.35 mM CaCl2 for 24 hours in the presence or absence of 0 μg/ml, 50 μg/ml, 100 μg/ml, or 200 μg/ml of VK28. The OD600 was measured at 24 hour and the results are shown in the bar graph of FIG. 21.

[10] = tested on: Acinetobacter baumannii; assay: as above; assay type: cell-based; details: 24 hours
Experimental: Acinetobacter baumannii was grown similar to as described in Example 21 in M9 media containing 2 mM MgSO4 for 24 hours in the presence of 0 μg/ml, 50 μg/ml, 100 μg/ml, or 200 μg/ml VK28. The OD600 was measured at 0, 4, and 24 hour and the results are shown in the time-kill curves of FIG. 19.
as §2

[11] = Maximum systemic dose without adverse side-effects, extrapolated; details: human; systemic delivery; based on mouse and rat results
Experimental: The iron chelator is employed in an amount effective for the treatment and/or prevention of bacterial infection. The effective dosage seen in vitro is up to 2 mM based on molarity or up to 1 mg/mL. 2 mM or 1 mg/mL is an extremely high dosage for translating into in vivo. Previous experiments by Varinel Inc. have shown toxicity with VK28 at 30 mg/kg in a mouse or 70 mg/kg in a rat when delivered systemically/intravenously. […] Higher doses are suitable for topical administration. The iron chelator can present in an amount that is up to about 10% by weight, alternatively up to about 20% by weight of the topical composition. In some embodiments, the topical composition can comprise about 0.1% to about 20% of at least one iron chelator, alternatively about 1% to about 20%, alternatively about 5% to about 20%, alternatively about 5% to about 10%, and include, but are not limited to, for example, about 1%, about 2%, about 3%, about 4%, about 5%, about 6%, about 7%, about 8%, about 9%, about 10%, about 12%, about 15%, about 20%, and includes percentages and ranges there between and in increments of about 0.1%, about 0.25%, about 0.5%, about 1% and the like. Determination of an effective amount of VK28, or derivative thereof, to employ is well within the skill of one having ordinary skill in the art having knowledge of the teachings set forth herein.

[12] = mouse; systemically/intravenously; cited from earlier work
[13] = rat; systemically/intravenously; cited from earlier work
[14] = M9 with 2 mM MgSO4, 50-200 μg/ml VK28
[15] = M9 with 2 mM MgSO4 and 1.35 mM CaCl2

Cc1c(O)c(=O)ccn1C [ApoL1, 3-hydroxy-1,2-dimethyl-4(1H)-pyridone]
growth of rifampin-resistant strains [1]: inhibits growth of an antibiotic resistant Ab strain over 7 days; also recorded: inhibition of rifampin-resistant strains of Ab over the 7 days

OCCN1CCN(Cc2ccc(O)c3ncccc23)CC1 [VK28, 5-(4-(2-hydroxyethyl)piperazin-1-ylmethyl)-8-hydroxyquinoline]
MIC ([2]; ATCC25923, ATCC 25923, read-out: MIC of Iron Chelators): 32 µg/mL
MIC ([2]; ATCC 43300 (MRSA), read-out: MIC of Iron Chelators): 16 µg/mL
OD600 values (growth) [3]: greatly decreases the OD600 values
continued multiplication of bacteria (OD600) [4]: effective to halt the continued multiplication of bacteria
growth (OD600) at 24 hr post inoculation [5]: reduced
growth (OD600) at 24 hr post inoculation [6]: reduced
OD600 at 24 hr post inoculation [7]: significantly reduced
OD600 at 24 hr post inoculation [8]: significantly reduced
inhibition of growth (OD600) [9, 14]: inhibition of growth of E. coli is not reduced in the presence of magnesium and calcium
inhibition of growth (OD600) [9, 15]: inhibition of growth of a number of strains of bacteria is not reduced in the presence of magnesium and calcium
inhibition of growth (OD600) [10, 14]: inhibition of growth of Acinetobacter baumannii is not reduced in the presence of magnesium
inhibition of growth (OD600) [10, 15]: inhibition of growth of a number of strains of bacteria is not reduced in the presence of magnesium and calcium
maximum dose without adverse side-effects [11]: approximately 60 mg/kg
dose showing toxicity [12]: 30 mg/kg
dose showing toxicity [13]: 70 mg/kg
